Experimental data as given in US4994459A, “Aryloxypropane substituted piperazine derivatives with antiarrhythmic and antifibrillatory activity” (American Home Products Corporation, priority 1989, dated 1991).

Legend:
[1] = test system: Pigs (Durrock-Landrace cross); experiment: Coronary occlusion-reperfusion in anesthetized pigs (20 min LAD occlusion, then reperfusion; survival); format: in vivo, pig; conditions: 20 minutes before LAD occlusion
Protocol: Pigs (Durrock-Landrace cross) of either sex weighing 12 to 24 kg were anesthetized by administration of sodium pentobarbital. (35 mg/kg i.p. and supplemented with 5 mg/kg/hr. i.v.) and ventilated with room air following tracheotomy (minute volume: 200 mL/kg). The left femoral artery and vein were cannulated for the recording of blood pressure and for drug administration, respectively. Blood pressure and lead II EKG were recorded on a chart recorder.
The heart was exposed by a left thoracotomy performed at the fifth intercostal space. A silk ligature was placed beneath the left anterior descending coronary artery (LAD) about 1.5 cm from its origin and distal to the septal artery branch. The artery was occluded by lifting the vessel with the ligature and quickly placing a bull-dog clamp (3×12 mm padded jaws) over the artery. The clamp remained in place for a period of 20 minutes. Removal of the clamp produced a rapid reperfusion of the ischemic myocardium as evidenced by the return of normal color to the myocardium distal to the site of occlusion. Ectopic activity was monitored during occlusion and reperfusion by recording the lead II EKG at chart speeds of 5 to 25 mm/second. Animals were allowed to stabilize for at least 30 minutes prior to drug administration.
Pigs were randomized into groups receiving either vehicle or test drug at a given dose (1-5 mg/kg i.v.) 20 minutes before LAD occlusion. Animals surviving the period of occlusion were subsequently reperfused. No attempt was made to resuscitate animals experiencing ventricular fibrillation (VF) at any time following occlusion. In the absence of treatment, less than 30 percent of the animals survive the 20 minute period of occlusion, with a mean time to death onset of 8 to 12 minutes. Effective compounds either prevent death due to VF or prolong survival time.

Purkinje fiber = experiment: Cardiac electrophysiology in vitro, dog Purkinje fibers (action potential parameters); format: cell-based; parameters: unit not given here; conditions: 3 μM
Protocol: The compounds of this invention display a Class III antiarrhythmic profile. The Class III antiarrhythmic activity was established in vitro and in vivo in accordance with the following standard test procedures. Bundles of free-running Purkinje fibers with attached myocardium obtained from either ventricle of adult dog heart were pinned without stretching to the bottom of a 10 mL tissue chamber and continuously superfused with oxygenated Tyrode's solution at a flow rate of 5 mL/min. The composition of the Tyrode's solution was (mM): NaCl, 138; KCl 4; CaCl2, 2; MgCl2 0.5; NaHCO3, 24; dextrose, 5.5. The solution was aerated with 95% O2 -5% CO2 at 37° C. Bath temperature was maintained at 37±0.5° C. by circulating the pre-warmed superfusate through a thermostatically controlled water bath immediately prior to entering the tissue chamber. The preparations were stimulated through bipolar Teflon-coated silver wires, bared at the tips, placed on the endocardial surface of the attached myocardium, using a digital stimulator set to deliver constant current pulses 1.5-msec in duration at cycle lengths of 300 or 1000 msec. Stimulus strength was set at approximately 2×diastolic threshold, and adjusted as required throughout the experiment. All preparations were allowed to equilibrate in the tissue chamber for at least 1 hour before measurements were begun. Subsequently, a minimum of 60 minutes were allowed for equilibration with each drug-containing superfusate before post-drug measurements were made. Impalements were made at 6 to 10 sites throughout the preparation before and after drug exposure. Offset potentials were rechecked after each impalement. Glass microelectrodes filled with 3M KCl were coupled to high impedance negative capacitance electrometers and Ag/AgCl half-cells used as reference electrodes. The first derivative of the action potential upstroke (Vmax) was obtained using an analog differentiator circuit, coupled to a peak-hold circuit that retained the recorded value of Vmax for 30 to 70-msec. […] In addition, chart paper recordings of Vmax were obtained using the peak-hold device output. Fresh stock solutions of drug were prepared for each experiment. […] Action potential (AP) parameters measured included: diastolic take-off potential or activation voltage, (Vact); AP overshoot (Vos); AP duration measured as the time taken to repolarize to -20 mV (APD-20),-60 mV (APD-60), and -80 mV (APD-80); and maximal upstroke velocity (Vmax). An increase in APD-60 that occurred without a significant change in Vmax was taken, by definition, to indicate Class III antiarrhythmic activity "in vitro".

Anesthetized Dog = experiment: Cardiac electrophysiology in anesthetized dogs (refractory periods, conduction times, heart rate, blood pressure); format: in vivo; parameters: ACT (atrial conduction time), change / VCT (ventricular conduction time), change / BP, change: unit not given here; conditions: 5 mg/kg i.v.; for ACT (atrial conduction time), change / AERP (refractory period of the right atrium), change / VCT (ventricular conduction time), change / VERP (refractory period of the right ventricle), change: BCL = 300, Example 1 n = 3; for BP, change / HR, change: Example 1 n = 3
Protocol: The compounds of this invention display a Class III antiarrhythmic profile. The Class III antiarrhythmic activity was established in vitro and in vivo in accordance with the following standard test procedures. Mongrel dogs of both sexes weighing 12 to 18 kg were anesthetized with sodium pentobarbital (35 mg/kg i.v. supplemented with 5 mg/kg/h) and artificially ventilated with room air (minute volume: 200 mL/kg). The heart was exposed by a right thoractomy performed at the fifth intercostal space and suspended in a pericardial cradle. Epicardial electrodes for stimulation and recording were sutured to the free wall of the lower right atrium and near the base of the right ventricle. Each electrode set contained a linear array of electrodes consisting of 1 bipolar stimulating electrode and 2 bipolar recording electrodes embedded in a rigid acrylic matrix. The stimulating bipole was 7 mm from the proximal recording electrode, which in turn was 10 mm from the distal recording bipole. Each electrode array was oriented to be parallel to the epicardial fiber axis. […] Conduction times and refractory periods were measured during pacing at a cycle length of 300 msec. The dog heart was paced by a stimulator driving a constant current isolation unit. […] Diastolic threshold was determined before and after each trial. Refractory periods of the right atrium and right ventricle ([…]) were determined by introducing an extrastimulus (S2) every 8 paced beats (S1). The extrastimulus was followed by a 4-second rest interval during which no pacing occurred. Both S1 and S2 were of identical intensity (twice threshold) and duration (2 msec). […] This S1 -S2 interval was considered to define effective refractory period. Atrial and ventricular (ACT and VCT) conduction times were measured as the time interval between the 2 electrograms recorded at the proximal and distal sites of the recording electrode array. The time of activation for electrograms with predominantly biphasic complexes was taken as the moment when the trace crossed the zero reference line, and for triphasic complexes, as the peak of the major deflection. Animals received the test compound by i.v. injection. Drugs were administered cumulatively at the following dose levels: 1, 2.5, 5, 7.5, 10 mg/kg. Each dose was administered over a 3 minute period. Electrophysiologic testing was performed 15 minutes following the end of dosing. Every 30 minutes the dog received the next incremental dose. […] An increase in ERP that occurred without a significant decrease of CT was taken, by definition to indicate "in vivo" Class III antiarrhythmic activity.

[2] = dextro enantiomer; Taggart et al. 1985, McComb et al. 1985; cited from earlier work

| Structure (SMILES) | Fraction of pigs surviving 20 min. occlusion ([1]; 2.5 mg/Kg i.v.) | Fraction of pigs surviving reperfusion ([1]; 2.5 mg/Kg i.v.) | Fraction of pigs surviving 20 min. occlusion ([1]; 5 mg/Kg i.v.) | Fraction of pigs surviving reperfusion ([1]; 5 mg/Kg i.v.) | APD-60 (AP duration, time to repolarize to -60 mV), change (Purkinje fiber; BCL = 300, Example 1 n = 2) | Vmax (maximal upstroke velocity), change (Purkinje fiber; BCL = 300, Example 1 n = 2) | APD-60 (AP duration, time to repolarize to -60 mV), change (Purkinje fiber; BCL = 1000, Example 1 n = 3) | Vmax (maximal upstroke velocity), change (Purkinje fiber; BCL = 1000, Example 1 n = 3) | ACT (atrial conduction time), change (Anesthetized Dog) | AERP (refractory period of the right atrium), change (Anesthetized Dog) | VCT (ventricular conduction time), change (Anesthetized Dog) | VERP (refractory period of the right ventricle), change (Anesthetized Dog) | BP, change (Anesthetized Dog) | HR, change (Anesthetized Dog) | selective Class III antiarrhythmic activity [2] |
| --- | --- | --- | --- | --- | --- | --- | --- | --- | --- | --- | --- | --- | --- | --- | --- |
| Cl.Cl.O=[N+]([O-])c1ccc(OCC(O)CN2CCN(c3ccccn3)CC2)cc1 (racemic) [Example 1, α-[(4-Nitrophenoxy)methyl]-4-(2-pyridinyl)-1-piperazineethanol Dihydrochloride] | 1/4 | 0/4 | 4/4 | 2/4 | 15 | -19 | 29 ± 6 | -8 ± 5 | 16 ± 1 | 69 ± 7 | -7 ± 9 | 25 ± 3 | -33 ± 9 | -33 ± 1 | – |
| CS(=O)(=O)Nc1ccc(OCC(O)CN2CCN(c3ncccn3)CC2)cc1 (centres unmarked) [Example 4, N-[4-[2-Hydroxy-3-[4-(2-pyrimidinyl)-1-piperazinyl]-propoxy]phenyl]methanesulfonamide] | – | – | – | – | 16 | -12 | 33 | -17 | -4 | 24 | 0 | 13 | -16 | -14 | – |
| CS(=O)(=O)Nc1ccc(OCC(O)CN2CCN(c3ccccn3)CC2)cc1 (centres unmarked) [Example 5, N-[4-[2-Hydroxy-3-[4-(2-pyridinyl)-1-piperazinyl]propoxy]phenyl]methanesulfonamide] | – | – | – | – | 30 | 7 | 50 | 14 | 6 | 56 | 3 | 13 | -25 | -15 | – |
| CC(C)NCC(O)c1ccc(NS(C)(=O)=O)cc1 (centres unmarked) [Sotalol, 4-(2-isopropylamino-1-hydroxyethyl)-methane-sulfonamide] | – | – | – | – | – | – | – | – | – | – | – | – | – | – | selective Class III antiarrhythmic activity |
